According to ChEMBL document CHEMBL4431321, “Profiling of Flavonol Derivatives for the Development of Antitrypanosomatidic Drugs” (J Med Chem, 2016):
One block for each compound: values may come before it. Active and inactive are the calls of the source. The calls are words filed in the database; no cut-off is given here.

Columns and labels:
[1] = test system: Trypanosoma brucei brucei; test: Antitrypanosomal activity against Trypanosoma brucei brucei Lister 427 bloodstream forms after 72 hrs by resazurin-based assay; type: functional, organism-based; details: Lister 427, 72 h
Trypanosoma brucei [2] = test: Inhibition of Trypanosoma brucei PTR1 at 50 uM using H2B as substrate incubated for 10 mins followed by addition of NADPH measured for 10 to 50 mins
Leishmania mexicana [3] = test: Inhibition of Leishmania mexicana DHFR at 50 uM using folic aid as substrate by spectrophotometric analysis
Trypanosoma brucei [4] = test: Inhibition of Trypanosoma brucei DHFR at 50 uM using folic aid as substrate by spectrophotometric analysis
[5] = biological target: T1, Dihydrofolate reductase (Homo sapiens) (UniProt P00374); test: Inhibition of human DHFR at 50 uM using folic aid as substrate by spectrophotometric analysis
T1 sequence (whole entry): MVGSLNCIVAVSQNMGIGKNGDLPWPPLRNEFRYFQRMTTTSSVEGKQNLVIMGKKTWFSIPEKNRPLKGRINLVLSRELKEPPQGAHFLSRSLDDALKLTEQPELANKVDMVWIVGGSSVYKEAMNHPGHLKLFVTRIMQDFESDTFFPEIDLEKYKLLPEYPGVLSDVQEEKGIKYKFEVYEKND

[6] = biological target: Thymidylate synthase (Homo sapiens) (UniProt P04818); test: Inhibition of human thymidylate synthase at 50 uM using folic aid as substrate by spectrophotometric analysis
Chain of Thymidylate synthase (Homo sapiens) (P04818 2-313 limits assumed): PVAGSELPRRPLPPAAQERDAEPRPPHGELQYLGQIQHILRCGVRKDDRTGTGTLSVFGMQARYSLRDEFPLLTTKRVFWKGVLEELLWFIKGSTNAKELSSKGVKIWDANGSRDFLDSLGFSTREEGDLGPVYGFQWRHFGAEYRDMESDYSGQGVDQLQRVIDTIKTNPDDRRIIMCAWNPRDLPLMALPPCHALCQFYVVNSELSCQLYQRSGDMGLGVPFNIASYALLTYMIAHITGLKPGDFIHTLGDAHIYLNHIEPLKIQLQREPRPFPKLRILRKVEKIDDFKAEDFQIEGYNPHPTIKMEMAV

786-0 = test: Mitochondrial toxicity in human 786-O cells incubated for 6 hrs by mitotracker red staining based-uptake method; type: cell-based; details: 786-0, 6 h
A549 = test: Cytotoxicity against human A549 cells at 100 uM after 48 hrs by cell titer glo assay; type: cell-based; details: a549, 48 h
WI-38 = test: Cytotoxicity against human WI38 cells at 100 uM after 48 hrs by cell titer glo assay; type: cell-based; details: wi-38, 48 h
[7] = test system: Trypanosoma brucei brucei; test: Antitrypanosomal activity against Trypanosoma brucei brucei Lister 427 bloodstream forms at 10 uM after 72 hrs by resazurin-based assay; type: functional, organism-based
[8] = Cytotoxicity against human THP1 cells after 72 hrs by MTT assay; type: cell-based; details: THP-1 cells; for MNTC at 72 h: read-out: NOAEL
[9] = test system: Trypanosoma brucei brucei; test: Antitrypanosomal activity against Trypanosoma brucei brucei Lister 427 bloodstream forms assessed as synergy coefficient at 1.25 to 5 uM after 72 hrs in presence of MTX by resazurin-based assay; type: functional
Cytochrome P450 1A2 = biological target: T2, Cytochrome P450 1A2 (Homo sapiens, UniProt P05177); test: Inhibition of human microsomal CYP1A2 expressed in baculovirus infected BTI-TN-5B1-4 cells at 10 uM incubated for 30 mins by luciferase assay; type: ADME; details: bti-tn-5b1-4, 0.5 h, 10 µM
T2 sequence (P05177 whole entry): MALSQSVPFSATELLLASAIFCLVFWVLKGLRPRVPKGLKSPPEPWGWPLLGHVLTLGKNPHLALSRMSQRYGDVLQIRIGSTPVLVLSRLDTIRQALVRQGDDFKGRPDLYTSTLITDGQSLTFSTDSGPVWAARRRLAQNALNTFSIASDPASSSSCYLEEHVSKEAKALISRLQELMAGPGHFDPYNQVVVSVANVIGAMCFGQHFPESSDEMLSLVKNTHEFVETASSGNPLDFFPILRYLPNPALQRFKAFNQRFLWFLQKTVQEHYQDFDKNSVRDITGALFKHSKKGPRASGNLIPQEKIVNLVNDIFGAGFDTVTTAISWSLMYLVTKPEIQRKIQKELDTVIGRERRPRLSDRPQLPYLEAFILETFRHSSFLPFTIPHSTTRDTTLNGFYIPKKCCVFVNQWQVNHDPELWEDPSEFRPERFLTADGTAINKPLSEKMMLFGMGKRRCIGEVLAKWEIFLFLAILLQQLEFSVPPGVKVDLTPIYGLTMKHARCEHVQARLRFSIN

in vitro = details: human, THP-1 cells
Description: Selectivity index, ratio of CC50 for human THP1 cells to EC50 for Trypanosoma brucei brucei Lister 427 bloodstream forms

[10] = Inhibition of Trypanosoma brucei PTR1 using H2B as substrate incubated for 10 mins followed by addition of NADPH measured for 10 to 50 mins
Leishmania mexicana [11] = test: Inhibition of Leishmania mexicana PTR1 at 50 uM using H2B as substrate incubated for 10 mins followed by addition of NADPH measured for 10 to 50 mins

- IC50 [1]: < 30 µM
SMILES: O=c1cc(-c2ccc(O)c(O)c2)oc2cc(O[C@@H]3O[C@@H](CO)[C@H](O)[C@@H](O)[C@@H]3O)cc(O)c12

- EC50 [1]: 2.32 µM
- inhibition (Trypanosoma brucei [2]): 3%
- inhibition (Leishmania mexicana [3]): < 25%
- inhibition (Trypanosoma brucei [4]): < 25%
- inhibition [5]: < 30%
- inhibition [6]: inactive
- inhibition (INH) (Cytochrome P450 1A2): Not Active
SMILES: O=c1c(O)c(-c2ccc(O)cc2)oc2ccc(O)cc12
- Activity (786-0): Non-Toxic
- Activity (A549): Non-Toxic
- Activity (WI-38): Non-Toxic
- Activity [7]: Active
- MNTC at 72 h [8]: 20 µM
- CI [9]: >1.5
- selectivity ratio (in vitro): 7

SMILES: O=C1CC(c2ccc(O)cc2)Oc2cc(O)cc(O)c21 (stereo not given)
- IC50 [1]: < 30 µM

- EC50 [1]: 1.36 µM
- inhibition (Leishmania mexicana [3]): < 25%
- inhibition (Trypanosoma brucei [4]): < 25%
- inhibition [5]: < 30%
- inhibition [6]: inactive
- inhibition (INH) (Cytochrome P450 1A2): Not Active
SMILES: O=c1c(O)c(-c2ccc(O)c(O)c2)oc2ccc(O)cc12
- Activity (786-0): Non-Toxic
- Activity (A549): Non-Toxic
- Activity (WI-38): Non-Toxic
- Activity [7]: Active
- MNTC at 72 h [8]: 10 µM
- selectivity ratio (in vitro): 6

SMILES: O=c1cc(-c2ccc(O)c(O)c2)oc2cc(O)cc(O)c12 [LUTEOLIN]
- IC50 [1]: < 30 µM

- IC50 [1]: 9 µM
SMILES: O=c1c(O)c(-c2ccc(O)cc2)oc2cc(O)cc(O)c12 [KAEMPFEROL]
- IC50 [10]: 28 µM

SMILES: O=C(O)c1cc(O)c(O)c(O)c1 [GALLIC ACID]
- IC50 [1]: < 30 µM

- IC50 [1]: < 30 µM
SMILES: Oc1cc(O)c2c(c1)O[C@H](c1ccc(O)c(O)c1)[C@H](O)C2 [(-)-EPICATECHIN]

SMILES: N=C(N)c1ccc(OCCCCCOc2ccc(C(=N)N)cc2)cc1 [PENTAMIDINE]
- MNTC at 72 h [8]: 10 µM
- selectivity ratio (in vitro): 6440

- IC50 [1]: 9.1 µM
SMILES: O=c1c(O)c(-c2ccccc2)oc2ccccc12 [FLAVONOL]
- IC50 [10]: 12.8 µM

- IC50 [1]: < 30 µM
SMILES: COc1ccc([C@@H]2CC(=O)c3c(O)cc(O)cc3O2)cc1O [HESPERETIN]

- IC50 [1]: < 30 µM
SMILES: O=c1cc(-c2ccccc2)oc2cc(O)cc(O)c12 [CHRYSIN]

- IC50 [1]: < 30 µM
SMILES: C[C@H]1O[C@@H](O[C@@H]2[C@H](Oc3cc(O)c4c(c3)OC(c3ccc(O)cc3)CC4=O)O[C@@H](CO)[C@H](O)[C@H]2O)[C@@H](O)[C@@H](O)[C@@H]1O (stereo not given in full)

SMILES: COc1ccc(-c2oc3cc(OC)ccc3c(=O)c2O)cc1
- Activity (786-0): Non-Toxic
- Activity (A549): Non-Toxic
- Activity (WI-38): Non-Toxic
- Activity [7]: Active
- MNTC at 72 h [8]: 10 µM
- inhibition (INH) (Cytochrome P450 1A2): Not Active
- selectivity ratio (in vitro): 9

SMILES: COc1cc(-c2oc3cc(O)cc(O)c3c(=O)c2O)ccc1O [ISORHAMNETIN]
- IC50 [10]: 13.9 µM
- IC50 [1]: 11.2 µM

- IC50 [1]: < 30 µM
SMILES: COc1ccc(/C=C/C(=O)O)cc1O [ISOFERULIC ACID]

- IC50 [1]: < 30 µM
SMILES: O=c1oc2c(O)c(O)cc3c(=O)oc4c(O)c(O)cc1c4c23

- IC50 [1]: < 30 µM
SMILES: O=C(O)/C=C/c1ccc(O)c(O)c1 [CAFFEIC ACID]

- inhibition (INH) (Cytochrome P450 1A2): Not Active
SMILES: COc1cccc(-c2oc3cc(OC)ccc3c(=O)c2O)c1
- Activity (786-0): Non-Toxic
- Activity (A549): Non-Toxic
- Activity (WI-38): Non-Toxic
- Activity [7]: Active
- MNTC at 72 h [8]: 10 µM
- selectivity ratio (in vitro): 8

SMILES: CC1(C(=O)O)CCC2(C)CCC3(C)C(=CC(=O)C4C5(C)CCC(OC6OC(C(=O)O)C(O)C(O)C6OC6OC(C(=O)O)C(O)C(O)C6O)C(C)(C)C5CCC43C)C2C1 (stereo not given)
- IC50 [1]: < 30 µM

- IC50 [1]: < 30 µM
SMILES: COc1cccc(/C=C/C(=O)O)c1

- IC50 [1]: < 30 µM
SMILES: O=C(O)/C=C/c1cccc(O)c1

- IC50 [1]: < 30 µM
SMILES: Oc1cc(O)c2c(c1)O[C@H](c1ccc(O)c(O)c1)[C@@H](O)C2 [CIANIDANOL]

- IC50 [1]: < 30 µM
SMILES: O=C(O)/C=C/c1ccccc1O [O-COUMARIC ACID]

- EC50 [1]: 12.3 µM
- inhibition (Trypanosoma brucei [2]): 47%
- inhibition (Leishmania mexicana [3]): < 25%
- inhibition (Trypanosoma brucei [4]): < 25%
- inhibition [5]: < 30%
- inhibition [6]: inactive
- inhibition (INH) (Cytochrome P450 1A2): Not Active
SMILES: O=c1c(O)c(-c2cccc(O)c2)oc2cc(O)ccc12
- Activity (786-0): Non-Toxic
- Activity (A549): Non-Toxic
- Activity (WI-38): Non-Toxic
- Activity [7]: Active
- CC50 at 72 h [8]: 80 µM
- CI [9]: >1
- selectivity ratio (in vitro): 6

- IC50 [1]: < 30 µM
SMILES: COc1cc(/C=C/C(=O)O)ccc1O [FERULATE]

- IC50 [1]: < 30 µM
SMILES: O=C(/C=C/c1ccc(O)c(O)c1)O[C@@H]1C[C@](O)(C(=O)O)C[C@@H](O)[C@H]1O [CHLOROGENIC ACID]

- IC50 [1]: < 30 µM
SMILES: COc1cc(OC)c2c(=O)cc(-c3ccccc3)oc2c1 [CHRYSIN DIMETHYL ETHER]

- IC50 [1]: < 30 µM
SMILES: COc1ccc([C@H]2CC(=O)c3c(O)cc(O[C@@H]4O[C@H](CO[C@@H]5O[C@@H](C)[C@H](O)[C@@H](O)[C@H]5O)[C@@H](O)[C@H](O)[C@H]4O)cc3O2)cc1O

- IC50 [1]: < 30 µM
SMILES: O=C1c2c(O)cccc2C(C2OC(CO)C(O)C(O)C2O)c2cc(CO)cc(O)c21 (stereo not given)

- IC50 [1]: < 30 µM
SMILES: COc1ccc([C@H]2CC(=O)c3c(O)cc(O[C@@H]4O[C@H](CO)[C@@H](O)[C@H](O)[C@H]4O[C@@H]4O[C@@H](C)[C@H](O)[C@@H](O)[C@H]4O)cc3O2)cc1O

- IC50 [1]: < 30 µM
SMILES: O=C(O)/C=C/c1ccc(O)cc1 [COUMARIC ACID]

- IC50 [1]: < 30 µM
SMILES: COc1cc(-c2cc(=O)c3c(O)cc(O)cc3o2)ccc1O [CHRYSOERIOL]

SMILES: Cc1cc(O)c2c(c1)C(=O)c1cc(O)cc(O)c1C2=O [EMODIN]
- IC50 [1]: < 30 µM

- inhibition (Trypanosoma brucei [2]): inactive
- inhibition (Leishmania mexicana [11]): inactive
- inhibition (INH) (Cytochrome P450 1A2): Not Active
SMILES: COc1cccc(-c2oc3ccccc3c(=O)c2O)c1
- Activity (786-0): Non-Toxic
- Activity (A549): Non-Toxic
- Activity (WI-38): Non-Toxic
- Activity [7]: Active
- MNTC at 72 h [8]: 10 µM
- selectivity ratio (in vitro): 4

- inhibition (INH) (Cytochrome P450 1A2): Not Active
SMILES: COc1ccc2oc(-c3ccc(OC)c(OC)c3)c(O)c(=O)c2c1
- Activity (786-0): Non-Toxic
- Activity (A549): Non-Toxic
- Activity (WI-38): Non-Toxic
- Activity [7]: Active
- MNTC at 72 h [8]: 10 µM
- CI [9]: >1
- selectivity ratio (in vitro): 5

- IC50 [1]: < 30 µM
SMILES: O=c1cc(-c2ccccc2)oc2cccc(O)c12 [5-HYDROXYFLAVONE]

- IC50 [1]: < 30 µM
SMILES: COc1cc(O)c2c(=O)cc(-c3ccccc3)oc2c1 [TECHTOCHRYSIN]

- IC50 [1]: < 30 µM
SMILES: O=c1cc(-c2ccccc2)oc2ccccc12 [FLAVONE]

- EC50 [1]: 5.18 µM
- inhibition (Trypanosoma brucei [2]): 35%
- inhibition (Leishmania mexicana [11]): 35%
- inhibition (Leishmania mexicana [3]): 42 to 43%
- inhibition (Trypanosoma brucei [4]): 42 to 43%
- inhibition [5]: < 30%
- inhibition [6]: inactive
- inhibition (INH) (Cytochrome P450 1A2): Not Active
SMILES: O=c1c(O)c(-c2cccc(O)c2)oc2ccccc12
- Activity (786-0): Non-Toxic
- Activity (A549): Non-Toxic
- Activity (WI-38): Non-Toxic
- Activity [7]: Active
- MNTC at 72 h [8]: 20 µM
- selectivity ratio (in vitro): 4

- inhibition (INH) (Cytochrome P450 1A2): Not Active
SMILES: COc1ccc2c(=O)c(O)c(-c3ccc(OC)c(OC)c3)oc2c1
- Activity (786-0): Non-Toxic
- Activity (A549): Non-Toxic
- Activity (WI-38): Non-Toxic
- Activity [7]: Active
- MNTC at 72 h [8]: 25 µM
- selectivity ratio (in vitro): 8

- IC50 [1]: 27 µM
SMILES: O=c1c(O)c(-c2ccccc2O)oc2cc(O)cc(O)c12 [DATISCETIN]
- IC50 [10]: 76.9 µM
